Molecular target: T1, Type-1 angiotensin II receptor (Homo sapiens, UniProt P30556)
T1 sequence (P30556 whole entry): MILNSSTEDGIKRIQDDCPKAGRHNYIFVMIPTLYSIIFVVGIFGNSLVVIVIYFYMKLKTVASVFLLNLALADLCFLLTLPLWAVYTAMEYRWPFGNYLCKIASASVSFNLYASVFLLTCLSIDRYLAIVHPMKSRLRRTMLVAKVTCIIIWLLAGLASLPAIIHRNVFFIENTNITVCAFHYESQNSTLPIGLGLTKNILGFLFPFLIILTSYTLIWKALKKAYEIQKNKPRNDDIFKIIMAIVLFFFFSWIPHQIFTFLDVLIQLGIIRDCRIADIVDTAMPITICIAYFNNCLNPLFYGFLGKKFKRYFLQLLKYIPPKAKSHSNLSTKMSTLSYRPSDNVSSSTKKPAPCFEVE
Assay: Compound was tested in vitro for inhibitory activity against human Angiotensin II receptor in cultured preadipocytes
Format: cell-based

| IC50 | Structure (SMILES) |
| --- | --- |
| 44 nM | O=c1ccc2c(CO)nc(CO)nc2n1Cc1ccc(-c2ccccc2-c2nn[nH]n2)cc1 |
| 38 nM | Cc1nc(C)c2c(n1)N(Cc1ccc(-c3ccccc3-c3nnn[nH]3)cc1)C(=O)CC2 [TASOSARTAN] |
| 23 nM | Cc1nc(C(=O)O)nc2c1CCC(=O)N2Cc1ccc(-c2ccccc2-c2nnn[nH]2)cc1 |
| 44 nM | Cc1nc(C(=O)O)c2c(n1)N(Cc1ccc(-c3ccccc3-c3nnn[nH]3)cc1)C(=O)CC2 |
